Legend:
pancreatic trypsin = assay: Pancreatic trypsin immunohistochemistry on rat tissue sections (young, old, old-treated); type: in vivo; settings: old rats (100 weeks), compared with old and young (16 weeks) rats
Source text: (§1) Male Wistar rats (Harlan Sprague Dawley Inc., Indianapolis, IN) at maturity (4 months, 300 to 350 gm) and old age (24 months, 375 to 450 gm) were included in the study. The animals were maintained on standard laboratory chow (8604 Teklad rodent diet; Harlan Laboratories, Indianapolis, IN) without restriction and water ad libitum and maintained in separated room without pathogen-free conditions. […] A subgroup of old animals was given a serine protease inhibitor (tranexamic acid, 14 days) in drinking water (137 mM, exchanged daily) which at a minimum fluid consumption of 40 ml/day amounts to a minimum dose of 0.39 gm/kg/day for 350 gm body weight (BW).
A femoral venous catheter was placed after general anesthesia (pentobarbital sodium, 50 mg/kg [Abbott Laboratories, North Chicago, IL], intramuscularly after local anesthesia with 2% lidocaine HCl [Hospira, Inc, Lake Forrest, IL]). […]
To determine on the tissue sections the immunolabel density and distribution of serine proteases, pancreatic trypsin MoAb (D-1): sc-137077 (Santa Cruz) primary antibody was used, followed by secondary antibodies (MP-7601 for anti-rabbit IgG; MP-7602 for anti-mouse IgG; ImmPRESS Excel staining kit peroxidase). […] No counterstain was applied to facilitate quantitative label intensity measurements and since cellular and vascular structures are readily identified. […] All procedures were carried out under standardized conditions to permit quantitative comparison of label densities.
Small intestine: Full thickness tissue blocks of the wall of proximal jejunum (3 by 5 mm) were fixed from all sides in 10% formaldehyde. Serine proteases were detected with primary and secondary antibodies labeled with DAB (Peroxidase Substrate Kit, ab64238, ABCAM).
Images of the immunolabel density were recorded at different magnifications, from relatively low power overviews of the tissue (10× objective, numerical aperture 0.25) to higher magnification of single cells (at 60× oil immersion objective, numerical aperture 1.4). […]

collagen = assay: Collagen fragment labeling with biotin conjugated collagen hybridizing peptides (B-CHP); type: in vivo, rat; settings: old rats (100 weeks), two-week oral treatment, compared with old and young (16 weeks) rats
Source text: as §1, with “(BW). […]” for “(BW).”
Tissue sections were stained with B-CHP (stock solution, 150 mM; final applied solution 7.5. mM). […] The B-CHP label intensity on the sections was recorded by digital microscopy.
(§2) Images of the immunolabel density were recorded at different magnifications, from relatively low power overviews of the tissue (10× objective, numerical aperture 0.25) to higher magnification of single cells (at 60× oil immersion objective, numerical aperture 1.4). The images were recorded under standard light conditions under fixed settings of the substage condenser with a digital camera (Spot Insight GIGABIT camera, Sterling Height), so that the camera serves as a quantitative light intensity meter. […]

mucin = assay: Mucin-containing mucus layer of small intestine stained with alcian blue; type: in vivo, rat; settings: old rats (100 weeks), two-week oral treatment; compared with old and young rats; FIG. 3B
Source text: as §1, with “(BW). […]” for “(BW).”
as §2, with “meter. Images were analyzed on a laboratory computer to minimize operator error (NIH Image, 1.61, public domain software, spatial resolution of 640×480 pixel).” for “meter.”

amylase = assay: Amylase staining of epithelial cells of the small intestine; type: in vivo, rat; settings: old rats (100 weeks), oral treatment for two weeks; compared with old and young rats; FIG. 3B
Source text: as §1

SMILES: NC[C@H]1CC[C@H](C(=O)O)CC1 [tranexamic acid]
- pancreatic trypsin accumulation in cardiac muscle (pancreatic trypsin; two-week oral treatment (137 mM in drinking water), FIG. 1A): reduces pancreatic trypsin accumulation
- pancreatic trypsin accumulation in brain (pancreatic trypsin; two-week oral treatment, FIG. 2A): reduces pancreatic trypsin accumulation
- pancreatic trypsin accumulation in intestine (pancreatic trypsin; two-week oral treatment, FIG. 3A): reduces pancreatic trypsin accumulation in old rats (100 weeks) to similar levels seen in young rats
- collagen fragmentation in cardiac muscle (collagen; FIG. 1B): reduces collagen fragmentation in cardiac muscle in old-treated rats below levels seen in old rats to levels similar to those seen in young rats
- collagen fragmentation in brain (collagen; FIG. 2B): reduces collagen fragmentation in rat brain in old-treated rats below levels seen in old rats to levels similar to those seen in young rats
- mucin label density in villi of small intestine (mucin): partially restored
- increase in amylase in the small intestine of old rats (amylase): attenuated
